According to patent US10556860B2, “hTERT modulators and methods of use” (Arizona Board of Regents on Behalf of the University of …, priority 2015, dated 2020):

Columns and labels:
[1] = test system: hTERT core promoter E-box Mut construct; test: Luciferase assay, pGL3-E-box mutant in MCF7 cells; assay type: cell-based, human; conditions: 24 h
Description: Luciferase assay. From gDNA extracted from HeLa cells, the hTERT core promoter region, including −350 bp to +12 from the transcription start site, was amplified using a pair of primers, including KpnI and NheI restriction sites, for cloning of pGL3-hTERT with WT promoter sequence. Mutant constructs were generated by PCR-based site-directed mutagenesis. The sequence of each construct was confirmed by sequencing analysis. MCF7 cells in 24-well plate were transfected with 200 ng of pGL3 construct and 5 ng of pRL-TK by Fugene® HD Transfection Reagent and then incubated for 6 h. Media were replaced by fresh ones and the cells were treated with GTC365 or BRACO-19. The same volume of DMSO served as a control. […]
Since MYC is a key transcription factor for activation of the hTERT gene by binding to an E-box in the hTERT promoter region and is one of the oncogenes having a G-quadruplex structure in the promoter region, it was important to confirm that GTC365 affects the repression of hTERT promoter activity directly by binding to the G-quadruplex structure formed in the hTERT promoter and not by binding to the G-quadruplex in the MYC promoter. To distinguish between these possibilities, the luciferase activity of the pGL3-WT and pGL3-E-box mutant constructs were determined after treatment with GTC365. […]

[2] = test system: Telomeric G4; test: CD melting (Tm), telomeric G4; assay type: binding
Description: Circular dichroism. Oligomers of WT, G124A, G124/125A, G138/139A and G146A were synthesized and HPSF-purified by MGW Operon, Inc. For CD analysis, oligomers (5 μM) in a buffer containing 10 mM Tris-HCl (pH 7.5) and 140 mM KCl were annealed. For the CD analysis of the complex of oligomers and compounds, oligomers (5 μM) in a buffer containing 10 mM Tris-HCl (pH 7.5) and 5 mM KCl for GTC365 or 1 mM KCl for BRACO-19 were annealed. Oligomers and GTC365 or BRACO-19 were incubated overnight at room temperature. For the full-length of C-rich strand, the oligomer in a buffer of 10 mM Na cacodylate (pH 6.6) was annealed and then incubated with GTC365 overnight. CD analysis was conducted on a Jasco 810 spectropolarimeter (Jasco, Easton, Md.) using a quartz cell with 1 mm of path length, 1 nm of band width, and 1 s of response time for spectra at 20° C. Melting curves for the determination of Tm were obtained by recording ellipticity at 262 nm with increasing temperatures from 25° C. to 95° C. at a rate of 1.6° C./min. Tm of the C-rich strand with GTC365 was obtained from the CD signal at 286 nm within 10-60° C.
CD and DMS footprinting analyses were conducted to characterize the binding of GTC365 and BRACO-19 to the 5-12 G-quadruplex. […] To verify the effects of compounds on the thermal stability of the WT and the mutant G-quadruplexes, Tms were determined by CD. […] Since acridine derivatives are known to bind to telomeric G-quadruplex, the effects of GTC365 and BRACO-19 on telomeric G-quadruplex stability were compared by CD.
In contrast, BRACO-19 increased the Tm of telomeric G-quadruplex by ˜60% compared to that of the hTERT G-quadruplex at 0.5 and 1 equiv. A summary of the comparative Tms of GTC365 and BRACO-19 in hTERT and telomeric DNA is shown below.

[3] = test system: BCL2 mRNA; test: qPCR of BCL2 mRNA in MCF7 cells; assay type: cell-based, human; conditions: 72 h
Description: qPCR. MCF7 and melanoma cells were treated with GTC365 and BRACO-19 for 72 h. Total RNA was extracted using an RNeasy mini-prep kit (Qiagen) and quantitated by measuring absorbance at 260 nm. cDNA was synthesized using a Takara PrimeScript™ RT Reagent Kit with gDNA eraser and then used as a template for qPCR. The qPCR was performed using Kapa Probe Fast qPCR Master Mix with ABI Taqman probes of hTERT (Hs00972656_m1), BCL2 (HS00608023_m1, FAM-labeled) or MYC (Hs00153408_m1), and GAPDH (Hs02758991_g1, VIC-labeled). The Ct values were measured by running Rotor-Gene Q, and the relative quantity of hTERT, BCL2, and MYC mRNA was obtained compared to GAPDH as an internal control.
BCL2 is a downstream molecule to hTERT such that BCL2 expression is activated by hTERT to repress apoptosis. To further define the effect of GTC365 on the transcription of hTERT, the relative mRNA levels of MYC and BCL2 were determined by quantitative PCR analysis in MCF7 cells after treatment with GTC365 for 72 h. […] A series of GTC260 analogs were synthesized and their effect on hTERT gene expression in MCF7A and U87 cells determined (FIG. 7). […] Therefore, GTC365 directly repressed the transcription of hTERT and then led to a downstream decrease of BCL2 expression.

Row | SMILES | luciferase activity [1] | Tm of telomeric G-quadruplex increased compared to that of the hTERT G-quadruplex ([2]; 0.5 and 1 equiv) [%] | increase in Tm (ΔTm) ([2]; 0.5 equivalents) [°C] | increase in Tm (ΔTm) ([2]; 1 equivalent) [°C] | effect on BCL2 mRNA level [3] | Tm increase of telomeric G-quadruplex less than that of the hTERT G-quadruplex ([2]; 1 and 2 equiv) [%] | increase in Tm (ΔTm) ([2]; 2 equivalents) [°C] | decrease of BCL2 mRNA level ([3]; 1 μM)
1 | CN(C)c1ccc(Nc2c3ccc(NC(=O)CCN4CCCC4)cc3nc3cc(NC(=O)CCN4CCCC4)ccc23)cc1 [BRACO-19, reference compound] | failed to reduce | ~60 | 4.24 | 14.6 | no significant effect | – | – | –
2 | N=C(N)NCCCS(=O)(=O)Nc1ccc(Nc2c3ccccc3nc3cc([N+](=O)[O-])ccc23)cc1 [GTC365] | dose-dependent decrease | – | – | 4.4 | – | 42 | 7.5 | up to 18%
